Assay results from US20250333388A1, “OXADIAZOLONE COMPOUNDS AND HERBICIDAL COMPOSITIONS AND USES THEREOF” (SHANDONG BINNONG TECHNOLOGY CO., LTD., priority 2023, published 2025).

Assays:
Assay type in all cases: in vivo
rice = experiment: Safety testing on rice, stem and leaf spray in greenhouse; details: for inhibitory effect on rice (crop safety): at different doses, as compared to Control compounds A, B, and C, summary of Table 6; for Rice (%) safety (crop damage): stem and leaf spray
Experimental: (§1) The seeds of corn and rice were sown into nutrient soil in plastic cups, respectively, then covered with soil, compacted, watered, and further cultivated in a greenhouse by conventional methods. The stems and leaves of the crops were sprayed when the crops reached the 2- to 3-leaf stage. The test compounds of the present application were dissolved in acetone, followed by addition of Tween 80. The solution was then diluted with a certain amount of water to a certain solubility, and sprayed onto the plants using a spray tower. The test was repeated three times. After drying naturally in the shade, the plants were put in a greenhouse and managed according to conventional methods. The growth and development of corn and rice were observed, and the safety of the test agent on corn and rice was checked visually periodically. A safety grading standard was represented by 0-100%, with “O” representing no damage to crops, and “100%” representing complete killing or severe inhibition of crops.

corn = experiment: Safety testing on corn, stem and leaf spray in greenhouse; details: for inhibitory effect on corn (crop safety): at different doses, as compared to Control compounds A, B, and C, summary of Table 6; for Corn (%) safety (crop damage): stem and leaf spray
Experimental: as §1

Solanum nigrum = experiment: Test of herbicidal activity, post-seedling stem and leaf spray in greenhouse, Solanum nigrum; details: for herbicidal activity against Solamum nigrum compared with Control compounds A, B and C: at different doses, summary of Table 5; for Solanum nigrum (%) control effect: post-seedling stem and leaf spray
Experimental: (§2) Seeds of broadleaf weeds (abutilon, Solanum nigrum) or gramineous weeds (crabgrass, barnyard grass) were sown into nutrient soil in plastic cups, respectively, and then covered with soil, compacted, watered, and further cultivated in a greenhouse by conventional methods. The stems and leaves of the weeds were sprayed when the weeds reached the 2- to 3-leaf stage. The test compounds of the present application were dissolved in acetone respectively, followed by addition of Tween 80. The solution was diluted with a certain amount of water to a certain solubility, and then sprayed onto the plants using a spray tower. The test was repeated three times. After drying naturally in the shade, the plants were put in a greenhouse and managed according to conventional methods. The growth and development of weeds were observed, and the control effect of the test agent on weeds was checked visually periodically, which was expressed by 0-100%, with “0” representing no control effect, and “100%” representing complete killing or severe inhibition.

crabgrass = experiment: Test of herbicidal activity, post-seedling stem and leaf spray in greenhouse, crabgrass; details: for herbicidal activity against crabgrass compared with Control compounds A, B and C: at different doses, summary of Table 5; for Crabgrass (%) control effect: post-seedling stem and leaf spray
Experimental: as §2

barnyard grass = experiment: Test of herbicidal activity, post-seedling stem and leaf spray in greenhouse, barnyard grass; details: for herbicidal activity against barnyard grass compared with Control compounds A, B and C: at different doses, summary of Table 5; for Barnyard grass (%) control effect: post-seedling stem and leaf spray
Experimental: as §2

abutilon = experiment: Test of herbicidal activity, post-seedling stem and leaf spray in greenhouse, abutilon; details: for herbicidal activity against abutilon compared with Control compounds A, B and C: at different doses, summary of Table 5; for Abutilon (%) control effect: post-seedling stem and leaf spray
Experimental: as §2

[1] = dose 300 g a.i/ha, 0 = no damage to crops, 100% = complete killing or severe inhibition
[2] = dose 300 g a.i/ha, 0 = no control effect, 100% = complete killing or severe inhibition

Structure (SMILES)	Rice (%) safety (crop damage) (rice; dose 37.5 g a.i/ha) [%]	Rice (%) safety (crop damage) (rice; dose 75 g a.i/ha) [%]	Rice (%) safety (crop damage) (rice; dose 150 g a.i/ha) [%]	Rice (%) safety (crop damage) (rice; dose 300 g a.i/ha) [%]	Corn (%) safety (crop damage) (corn; dose 37.5 g a.i/ha) [%]	Corn (%) safety (crop damage) (corn; dose 75 g a.i/ha) [%]	Corn (%) safety (crop damage) (corn; dose 150 g a.i/ha) [%]	Corn (%) safety (crop damage) (corn; [1]) [%]	Solanum nigrum (%) control effect (Solanum nigrum; dose 37.5 g a.i/ha) [%]	Solanum nigrum (%) control effect (Solanum nigrum; dose 75 g a.i/ha) [%]	Solanum nigrum (%) control effect (Solanum nigrum; dose 150 g a.i/ha) [%]	Solanum nigrum (%) control effect (Solanum nigrum; dose 300 g a.i/ha) [%]	Crabgrass (%) control effect (crabgrass; dose 37.5 g a.i/ha) [%]	Crabgrass (%) control effect (crabgrass; dose 75 g a.i/ha) [%]	Crabgrass (%) control effect (crabgrass; dose 150 g a.i/ha) [%]	Crabgrass (%) control effect (crabgrass; dose 300 g a.i/ha) [%]	Barnyard grass (%) control effect (barnyard grass; dose 37.5 g a.i/ha) [%]	Barnyard grass (%) control effect (barnyard grass; dose 75 g a.i/ha) [%]	Barnyard grass (%) control effect (barnyard grass; dose 150 g a.i/ha) [%]	Barnyard grass (%) control effect (barnyard grass; dose 300 g a.i/ha) [%]	also measured
CCS(=O)(=O)c1ccc(C(=O)c2c(C)nn(C)c2OC(=O)c2cc(C)nn2C)c(Cl)c1Cn1nc(C)oc1=O [Compound 224]	0	0	2	5	0	0	0	2	50	70	90	93	45	65	80	84	50	70	85	88	inhibitory effect on rice (crop safety) (rice): no significant inhibitory effect; inhibitory effect on corn (crop safety) (corn): no significant inhibitory effect; herbicidal activity against Solamum nigrum compared with Control compounds A, B and C (Solanum nigrum): better herbicidal activities; herbicidal activity against crabgrass compared with Control compounds A, B and C (crabgrass): better herbicidal activities; herbicidal activity against barnyard grass compared with Control compounds A, B and C (barnyard grass): better herbicidal activities; herbicidal activity against abutilon compared with Control compounds A, B and C (abutilon): better herbicidal activities; Abutilon (%) control effect (abutilon; dose 37.5 g a.i/ha): 55%; Abutilon (%) control effect (abutilon; dose 75 g a.i/ha): 80%; Abutilon (%) control effect (abutilon; dose 150 g a.i/ha): 90%; Abutilon (%) control effect (abutilon; [2]): 92%
Cc1nn(Cc2c(S(C)(=O)=O)ccc(C(=O)c3c(C4CC4)nn(C)c3OC(=O)c3c(C)nn(C)c3Cl)c2Cl)c(=O)o1 [Compound 201]	0	0	0	2	0	0	0	0	55	75	95	100	45	65	80	90	55	75	95	100	inhibitory effect on rice (crop safety) (rice): no significant inhibitory effect; inhibitory effect on corn (crop safety) (corn): no significant inhibitory effect; herbicidal activity against Solamum nigrum compared with Control compounds A, B and C (Solanum nigrum): better herbicidal activities; herbicidal activity against crabgrass compared with Control compounds A, B and C (crabgrass): better herbicidal activities; herbicidal activity against barnyard grass compared with Control compounds A, B and C (barnyard grass): better herbicidal activities; herbicidal activity against abutilon compared with Control compounds A, B and C (abutilon): better herbicidal activities; Abutilon (%) control effect (abutilon; dose 37.5 g a.i/ha): 55%; Abutilon (%) control effect (abutilon; dose 75 g a.i/ha): 80%; Abutilon (%) control effect (abutilon; dose 150 g a.i/ha): 92%; Abutilon (%) control effect (abutilon; [2]): 98%
CS(=O)(=O)c1ccc(C(=O)C2C(=O)CCCC2=O)c(Cl)c1CN1CCOCC1 [Control compound C, reference compound]	30	55	75	85	0	0	2	5	40	50	65	85	20	55	65	70	35	60	70	75	Abutilon (%) control effect (abutilon; dose 37.5 g a.i/ha): 45%; Abutilon (%) control effect (abutilon; dose 75 g a.i/ha): 55%; Abutilon (%) control effect (abutilon; dose 150 g a.i/ha): 70%; Abutilon (%) control effect (abutilon; [2]): 90%
CS(=O)(=O)c1ccc(C(=O)C2C(=O)CCCC2=O)c(Cl)c1 [Control compound A, reference compound]	10	25	45	60	0	0	0	5	50	70	90	95	5	25	45	50	10	30	50	60	Abutilon (%) control effect (abutilon; dose 37.5 g a.i/ha): 50%; Abutilon (%) control effect (abutilon; dose 75 g a.i/ha): 80%; Abutilon (%) control effect (abutilon; dose 150 g a.i/ha): 98%; Abutilon (%) control effect (abutilon; [2]): 100%
Cc1nn(C)c(O)c1C(=O)c1ccc(S(C)(=O)=O)cc1Cl [Control compound B, reference compound]	10	20	40	55	0	0	0	2	40	50	65	70	5	15	40	45	10	25	45	55	Abutilon (%) control effect (abutilon; dose 37.5 g a.i/ha): 45%; Abutilon (%) control effect (abutilon; dose 75 g a.i/ha): 55%; Abutilon (%) control effect (abutilon; dose 150 g a.i/ha): 75%; Abutilon (%) control effect (abutilon; [2]): 85%
